Measured values published in patent publication US20100168105A1, “Spirocyclopropyl Piperidine Derivatives” (priority 2007, published 2010).

Assays:
[1] = molecular target: human histamine H3 receptors (full-length H3, isoform 445) (Homo sapiens, UniProt Q9Y5N1); details: hH3 binding IC50 (nM), inhibition of 1.4 nM [3H]-N-α-methylhistamine binding to CHO-K1 membranes expressing human H3, SPA, 1.5 hr;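 also: scintillation counts read after the 1.5 hr incubation at room temperature with shaking, Imetit serving as reference control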
Method: Histamine H3 SPA with the Agonist Radioligand [^3H]—N-α-methylhistamine
Reproducibility of the assay is such that IC50 curves can be generated in singlicate. Single poke (SP) testing was done in triplicate.
Membranes, prepared from CHO-K1 cells stably expressing the human histamine H3 receptor, were obtained from ACS.
Tested formula I compounds were provided as solubilized samples in neat DMSO. Serial dilutions were performed in DMSO.
Plates were read on a Perkin Elmer TopCount. CPM data were used to analyze unless DPM data generated by a quench curve were required.
• 1. 1 mg/ml BSA was added to assay buffer (AB) on day of assay. • 2. […] Buffer volume was split between beads and membranes to allow for polytroning of membranes prior to addition to beads. • a. […] Waited a minimum of 15 minutes prior to adding membranes (See b. below.). • b. […] The homogenized membrane mixture was combined with the beads and a minimum of 30 minutes was waited prior to dispensing to plate. • 3. Formula I compounds: For Single Poke, 2 μl 1 mM of a compound in accordance with formula I was dispensed to Optiplates (triplicate plates) for final concentration of 10 μM. […] Imetit (see below) was used as a control. • 4. […] 5 μl samples were calculated in quadruplicate on the β counter. […] (For IC50s, use final concentration on calculation tab of ABase template.)
• 1. […] 2 μl of the formula I compound dilution was mixed and then transferred into assay plates. DMSO was removed and 2 μl of 100 μM Imetit was added to the wells. • 3. 178 μl bead/membrane mixture was dispensed into the assay plate. • 4. 20 μl [^3H]-NAMH was added with Rapid Plate. The assay plate was sealed and incubated for 1.5 hr on RT shaker at speed ˜6.5. • 5. The assay plate was subsequently centrifuged at 1000 rpm for 10 minutes. • 6. The count was performed on TopCount using one of the 3H SPA H3 Quench programs.
The DPM data was analyzed when tSIS was less than that associated with 70% of full scale on the quench curve (tSIS<25%). Otherwise, CPM data was used.

[2] = molecular target: T1, human Histamine H3 receptor (hH3R) (Homo sapiens, UniProt Q9Y5N1); test: Guanosine 5'-O-(3-[35S]thio)triphosphate [GTPγS] Binding Assay; format: biochemical; details: antagonist activity; membranes from CHO cells expressing hH3R, (R)-α-methyl histamine 30 nM, [35S]GTPγS 0.2 nM, 90 minutes
T1 construct: expressed in transfected cells; host or cells: CHO cells (membranes)
Method: Guanosine 5′-O-(3-[^35]thio)triphosphate [GTPγS] Binding Assay
The GTPγS binding assay can be used to investigate antagonist properties of compounds in CHO cells (Chinese Hamster Ovary) transfected with human Histamine H3 receptor (hH3R). […] To determine antagonist activity, (R)-α-methyl histamine (30 nM) is added in 96 well SPA plate with [^35S]GTPγS (0.2 nM) and various concentration of H3R antagonists. The GTPγS binding assay is started with addition of the mixture membrane/saponine/GDP and incubated for 90 minutes at room temperature. The amount of bound [^35S]GTPγS is determined by using the MicroBeta Trilux counter (PerkinElmer). The percentage of [^35S]GTPγS bound in each sample is calculated as a percentage of that bound control sample incubated in absence of H3 antagonist. Duplicate determinations are obtained for each concentration, and the data are analyzed using ExcelFit4 to obtain the IC50.

T1 sequence (Q9Y5N1 whole entry): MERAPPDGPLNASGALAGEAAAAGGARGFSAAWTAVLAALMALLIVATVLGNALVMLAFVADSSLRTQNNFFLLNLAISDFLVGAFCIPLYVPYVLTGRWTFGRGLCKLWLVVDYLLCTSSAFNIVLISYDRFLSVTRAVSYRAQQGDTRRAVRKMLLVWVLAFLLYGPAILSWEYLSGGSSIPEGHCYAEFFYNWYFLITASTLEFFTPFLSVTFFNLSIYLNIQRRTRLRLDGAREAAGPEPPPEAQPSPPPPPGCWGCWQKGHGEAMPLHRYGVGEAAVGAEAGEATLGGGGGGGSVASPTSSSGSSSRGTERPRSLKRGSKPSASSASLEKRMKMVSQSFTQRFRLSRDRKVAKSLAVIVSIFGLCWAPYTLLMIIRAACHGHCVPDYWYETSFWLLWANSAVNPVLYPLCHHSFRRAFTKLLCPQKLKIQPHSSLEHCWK
Sequence of human histamine H3 receptors (full-length H3, isoform 445) (Q9Y5N1 whole entry, canonical isoform): as the sequence (Q9Y5N1 whole entry) above

SMILES	IC50 [1] [nM]	IC50 [2] [nM]
COc1cccc(N2CCC3(CC2)CC3C(=O)N2CCN(C3CCC3)CC2)n1 (stereo not drawn) [Example 41, (4-Cyclobutyl-piperazin-1-yl)-[6-(6-methoxy-pyridin-2-yl)-6-aza-spiro[2.5]oct-1-yl]-methanone]	542	
O=C(C1CC12CCN(CCOCc1ccccc1)CC2)N1CCN(C2CCCCC2)CC1 (stereo not drawn) [Example 25, [6-(2-Benzyloxy-ethyl)-6-aza-spiro[2.5]oct-1-yl]-(4-cyclohexyl-piperazin-1-yl)-methanone]	419	
O=C(C1CC12CCN(C1CCOCC1)CC2)N1CCN(c2cccnc2)CC1 (stereo not drawn) [Example 48, (4-(pyridin-3-yl)piperazin-1-yl)(6-(tetrahydro-2H-pyran-4-yl)-6-azaspiro[2.5]octan-1-yl)methanone]		308
CN1CCN(C(=O)C2CC23CCN(CCc2ccccc2)CC3)CC1 (stereo not drawn) [Example 5, (4-Methyl-piperazin-1-yl)-(6-phenethyl-6-aza-spiro[2.5]oct-1-yl)-methanone]	640	
Cc1cc(N2CCN(C(=O)C3CC34CCN(C3CCOCC3)CC4)CC2)ccn1 (stereo not drawn) [Example 49, (4-(2-methylpyridin-4-yl)piperazin-1-yl)(6-(tetrahydro-2H-pyran-4-yl)-6-azaspiro[2.5]octan-1-yl)methanone]		249
O=C(C1CC12CCN(c1ccc(C(F)(F)F)cn1)CC2)N1CCN(C2CCCCC2)CC1 (stereo not drawn) [Example 46, (4-Cyclohexyl-piperazin-1-yl)-[6-(5-trifluoromethyl-pyridin-2-yl)-6-aza-spiro[2.5]oct-1-yl]-methanone]	10000	
COC(=O)c1ccc(N2CCC3(CC2)CC3C(=O)N2CCN(C3CCC3)CC2)cc1 (stereo not drawn) [Example 40, 4-[1-(4-Cyclobutyl-piperazine-1-carbonyl)-6-aza-spiro[2.5]oct-6-yl]-benzoic acid methyl ester]	470	
CCC(CC)CN1CCC2(CC1)CC2C(=O)N1CCN(C)CC1 (stereo not drawn) [Example 3, [6-(2-Ethyl-butyl)-6-aza-spiro[2.5]oct-1-yl]-(4-methyl-piperazin-1-yl)-methanone]	1000	
O=C(C1CC12CCN(c1ccc3c(c1)OCO3)CC2)N1CCN(C2CCCCC2)CC1 (stereo not drawn) [Example 47, (6-Benzo[1,3]dioxol-5-yl-6-aza-spiro[2.5]oct-1-yl)-(4-cyclohexyl-piperazin-1-yl)-methanone]	5170	
Cc1cnccc1N1CCN(C(=O)C2CC23CCN(C2CCOCC2)CC3)CC1 (stereo not drawn) [Example 50, (4-(3-methylpyridin-4-yl)piperazin-1-yl)(6-(tetrahydro-2H-pyran-4-yl)-6-azaspiro[2.5]octan-1-yl)methanone]		115
CN1CCN(C(=O)C2CC23CCN(C/C=C/c2ccccc2)CC3)CC1 (stereo not drawn) [Example 4, (4-Methyl-piperazin-1-yl)-[6-((E)-3-phenyl-allyl)-6-aza-spiro[2.5]oct-1-yl]-methanone]	800	
CS(=O)(=O)c1ccc(N2CCC3(CC2)CC3C(=O)N2CCN(C3CCC3)CC2)cc1 (stereo not drawn) [Example 38, (4-Cyclobutyl-piperazin-1-yl)-[6-(4-methanesulfonyl-phenyl)-6-aza-spiro[2.5]oct-1-yl]-methanone]	336	
COc1ccc(N2CCC3(CC2)CC3C(=O)N2CCN(C3CCC3)CC2)cc1 (stereo not drawn) [Example 39, (4-Cyclobutyl-piperazin-1-yl)-[6-(4-methoxy-phenyl)-6-aza-spiro[2.5]oct-1-yl]-methanone]	361	
O=C(C1CC12CCN(C1CCOCC1)CC2)N1CCN(c2ccccn2)CC1 (stereo not drawn) [Example 13, (4-Pyridin-2-yl-piperazin-1-yl)-[6-(tetrahydro-pyran-4-yl)-6-aza-spiro[2.5]oct-1-yl]-methanone]	573	
COc1ccc(N2CCN(C(=O)C3CC34CCN(C3CCOCC3)CC4)CC2)cc1 (stereo not drawn) [Example 15, [4-(4-Methoxy-phenyl)-piperazin-1-yl]-[6-(tetrahydro-pyran-4-yl)-6-aza-spiro[2.5]oct-1-yl]-methanone]	322	

Results, then the compound that gave them:

IC50 [1] [nM]	IC50 [2] [nM]	SMILES
594		O=C(C1CC12CCN(c1cccc(Cl)n1)CC2)N1CCN(C2CCC2)CC1 (stereo not drawn) [Example 42, [6-(6-Chloro-pyridin-2-yl)-6-aza-spiro[2.5]oct-1-yl]-(4-cyclobutyl-piperazin-1-yl)-methanone]
791		Cc1ccc(N2CCC3(CC2)CC3C(=O)N2CCN(C3CCC3)CC2)cc1 (stereo not drawn) [Example 45, (4-Cyclobutyl-piperazin-1-yl)-(6-p-tolyl-6-aza-spiro[2.5]oct-1-yl)-methanone]
2.66	13.2	CC(C)N1CCN(C(=O)C2CC23CCN(C2CCOCC2)CC3)CC1 (single isomer, unassigned) [Example 28, (4-Isopropyl-piperazin-1-yl)-[6-(tetrahydro-pyran-4-yl)-6-aza-spiro[2.5]oct-1-yl]-methanone]
4.1	3.66	O=C(C1CC12CCN(C1CCOCC1)CC2)N1CCN(C2CCC2)CC1 (stereo not drawn) [Example 8, (4-Cyclobutylpiperazin-1-yl)(6-(tetrahydro-2H-pyran-4-yl)-6-azaspiro[2.5]octan-1-yl)methanone]
182		CC(C)(C)OC(=O)CN1CCC2(CC1)CC2C(=O)N1CCN(C2CCC2)CC1 (stereo not drawn) [Example 36, [1-(4-Cyclobutyl-piperazine-1-carbonyl)-6-aza-spiro[2.5]oct-6-yl]-acetic acid tert-butyl ester]
615		COCCN1CCC2(CC1)CC2C(=O)N1CCN(C2CCCCC2)CC1 (stereo not drawn) [Example 43, (4-Cyclohexyl-piperazin-1-yl)-[6-(2-methoxy-ethyl)-6-aza-spiro[2.5]oct-1-yl]-methanone]
27.4	16.4	O=C(C1CC12CCN(CCc1ccccc1)CC2)N1CCN(C2CCCCC2)CC1 (single isomer, unassigned) [Example 17, (4-Cyclohexyl-piperazin-1-yl)-(6-phenethyl-6-aza-spiro[2.5]oct-1-yl)-methanone]
736		O=C(C1CC12CCN(c1ccccn1)CC2)N1CCN(C2CCC2)CC1 (stereo not drawn) [Example 44, (4-Cyclobutyl-piperazin-1-yl)-(6-pyridin-2-yl-6-aza-spiro[2.5]oct-1-yl)-methanone]
11.3	13.5	O=C(C1CC12CCN(C1CCCCC1)CC2)N1CCN(C2CCC2)CC1 (stereo not drawn) [Example 31, (4-Cyclobutyl-piperazin-1-yl)-(6-cyclohexyl-6-aza-spiro[2.5]oct-1-yl)-methanone]
97.2	22.5	CN1CCC(N2CCC3(CC2)CC3C(=O)N2CCN(C3CCCCC3)CC2)CC1 (stereo not drawn) [Example 20, (4-Cyclohexyl-piperazin-1-yl)-[6-(1-methyl-piperidin-4-yl)-6-aza-spiro[2.5]oct-1-yl]-methanone]
33.5	19	O=C(C1CC12CCN(C1CCOCC1)CC2)N1CCN(C2CC2)CC1 (stereo not drawn) [Example 9, (4-Cyclopropylpiperazin-1-yl)(6-(tetrahydro-2H-pyran-4-yl)-6-azaspiro[2.5]octan-1-yl)methanone]
10.1	14.3	O=C(C1CC12CCN(C1CCCSC1)CC2)N1CCN(C2CCC2)CC1 (stereo not drawn) [Example 30, (4-Cyclobutyl-piperazin-1-yl)-[6-(tetrahydro-thiopyran-3-yl)-6-aza-spiro[2.5]oct-1-yl]-methanone]
65.2	16.5	O=C(C1CC12CCN(CCc1ccccc1)CC2)N1CCN(C2CCCCC2)CC1 (stereo not drawn) [Example 16, (4-Cyclohexyl-piperazin-1-yl)-(6-phenethyl-6-aza-spiro[2.5]oct-1-yl)-methanone]
1300		CN1CCC(N2CCC3(CC2)CC3C(=O)N2CCN(C)CC2)CC1 (stereo not drawn) [Example 6, (4-Methyl-piperazin-1-yl)-[6-(1-methyl-piperidin-4-yl)-6-aza-spiro[2.5]oct-1-yl]-methanone]
141	19.3	CC(C)N1CCC2(CC1)CC2C(=O)N1CCN(C2CCCCC2)CC1 (stereo not drawn) [Example 21, (4-Cyclohexyl-piperazin-1-yl)-(6-isopropyl-6-aza-spiro[2.5]oct-1-yl)-methanone]
1.35	6.55	O=C(C1CC12CCN(C1CCCCC1)CC2)N1CCN(C2CCC2)CC1 (single isomer, unassigned) [Example 26, (4-Cyclobutyl-piperazin-1-yl)-(6-cyclohexyl-6-aza-spiro[2.5]oct-1-yl)-methanone]
306		O=C(C1CC12CCN(Cc1ccccc1)CC2)N1CCN(C2CCCCC2)CC1 (stereo not drawn) [Example 23, (6-Benzyl-6-aza-spiro[2.5]oct-1-yl)-(4-cyclohexyl-piperazin-1-yl)-methanone]
207		CNC(=O)CN1CCC2(CC1)CC2C(=O)N1CCN(C2CCC2)CC1 (stereo not drawn) [Example 37, 2-[1-(4-Cyclobutyl-piperazine-1-carbonyl)-6-aza-spiro[2.5]oct-6-yl]-N-methyl-acetamide]
336		O=C(C1CC12CCN(C1CCOCC1)CC2)N1CCN(C2CCOCC2)CC1 (stereo not drawn) [Example 24, [6-(Tetrahydro-pyran-4-yl)-6-aza-spiro[2.5]oct-1-yl]-[4-(tetrahydro-pyran-4-yl)-piperazin-1-yl]-methanone]
390		O=C(C1CC12CCN(C1CCOCC1)CC2)N1CCN(CC2CCCCC2)CC1 (stereo not drawn) [Example 2, (4-Cyclohexylmethyl-piperazin-1-yl)-[6-(tetrahydro-pyran-4-yl)-6-aza-spiro[2.5]oct-1-yl]-methanone]
